# Reference: US4576957A, “N-(Substituted phenyl)-N'-[(1H-imidazol-1-yl) and (1H-1,2,4-triazol-1-yl)alkyl]ureas” (American Cyanamid Company, priority 1984, dated 1986)
# Key:
# [1] = test system: spontaneously hypertensive rats; test: Hypotensive Activity in Spontaneously Hypertensive Rats; assay type: in vivo; conditions: gavage, 100 mg./kg. or less, two doses 24 hours apart; measured 28 hours after initial dose; initial average 170±1.5 mm
# Protocol: The novel compounds of the present invention are active hypotensive agents and were tested for hypotensive activity by the method of P. S. Chan and D. Poorvin, Clinical and Experimental Hypertension, 1 (6), 817-830 (1979). Male, 16 week old, spontaneously hypertensive rats of the Okamoto strain, from Taconic Farms, Germantown, N.Y., having an average mean arterial blood pressure of 170±1.5 mm of mercury are used in the test. One to 3 rats are used per test compound. A rat is dosed by gavage with a test compound, suspended in 2% pre-boiled starch at a concentration of 50 mg./ml., at a dose of 100 mg./kg. of body weight or less, with 0.9% sodium chloride loading at a dose of 25 ml./kg. of body weight. A second identical dose of the test compound, without sodium chloride loading is given 24 hours later. At 28 hours after the initial dose the mean arterial blood pressure is measured by the method of Chan and Poorvin vide supra. The procedure is repeated in a second and third rat when necessary.
# [2] = target: T1, thromboxane synthetase enzyme (Rattus norvegicus, UniProt P49430); test: Thromboxane Synthetase Enzyme Inhibition (TXB2 formation by washed SHR platelets, RIA); assay type: cell-based, Okamoto-Aoki spontaneously hypertensive rats (SHR); conditions: 10 min; Dose 10^-4 (unit inferred); SHR platelet suspension, 10 minutes at 37° C.
# T1 construct: The platelets were isolated by centrifuging the PRP for 10 minutes at 1060xg; endogenous in cells; host or cells: washed platelets from arterial blood of Okamoto-Aoki spontaneously hypertensive rats (Taconic Farms, Germantown, NY)
# T1 sequence (P49430 1-533): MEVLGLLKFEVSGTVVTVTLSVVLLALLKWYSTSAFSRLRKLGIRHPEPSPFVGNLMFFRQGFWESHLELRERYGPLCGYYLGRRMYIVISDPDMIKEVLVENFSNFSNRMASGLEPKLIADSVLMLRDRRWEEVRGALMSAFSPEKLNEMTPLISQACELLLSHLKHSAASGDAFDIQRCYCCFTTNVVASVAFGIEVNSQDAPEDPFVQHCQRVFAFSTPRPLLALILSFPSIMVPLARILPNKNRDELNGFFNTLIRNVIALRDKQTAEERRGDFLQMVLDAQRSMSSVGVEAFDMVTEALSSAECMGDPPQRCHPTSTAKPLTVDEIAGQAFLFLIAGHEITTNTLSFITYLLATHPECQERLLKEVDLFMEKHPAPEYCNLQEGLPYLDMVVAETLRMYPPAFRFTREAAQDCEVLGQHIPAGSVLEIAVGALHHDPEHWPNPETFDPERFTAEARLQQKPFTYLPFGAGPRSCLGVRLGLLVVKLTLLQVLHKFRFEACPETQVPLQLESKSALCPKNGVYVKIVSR
# Protocol: Under urethan anesthesia, […] of arterial blood was collected in one ml. of 3.2% sodium citrate in a polystyrene tube from Okamoto-Aoki spontaneously hypertensive rats (SHR) (Taconic Farms, Germantown, NY) between 19 and 24 weeks in age. The blood was diluted with 3 ml. cold saline and centrifuged at room temperature for 15 minutes at 460xg. The platelet rich plasma (PRP) was separated. The platelets were isolated by centrifuging the PRP for 10 minutes at 1060xg and were washed in 4 ml. of cold oxygenated Krebs phosphate buffer, pH 7.4. The chilled platelets recovered from centrifuging at 800xg for 10 minutes were resuspended in oxygenated Krebs phosphate buffer and diluted to contain 4.5-6.0×10^4 platelets/μl.
# The inhibition of thromboxane (TX) formation was studied by determining the concentration of thromboxane B2 (TXB2), the stable hydrolysis product of TXA2. Assay samples, prepared on ice, contained 200 μl platelet suspension, 50 μl saline and 50 μl saline and 50 μl vehicle or drug under study. The samples were incubated for 10 minutes at 37° C. in a metabolic shaker. The reaction was terminated by immersing the tubes in an ice bath and adding 50 μl of 0.5M citric acid. The samples were centrifuged for 10 minutes in a refrigerated centrifuge and the supernatants thus obtained were decanted and stored at -20° C. The TXB2 content for each sample was determined by a direct radioimmunoassay (RIA) utilizing a TXB2 specific RIA kit purchased from New England Nuclear, Boston, MA and expressed as pg TXB2 formed minute^-1 sample^-1, from which the percent inhibition of TXB2 formation was calculated.
# [3] = test system: ischemic myocardium in canines; conditions: cited from earlier work
# [4] = test system: coronary arteries of guinea pigs; conditions: cited from earlier work
# [5] = test system: coronary arteries of rabbits; conditions: cited from earlier work
SMILES,inhibition at 100 µM [2] [%],Average MABP [1] [mm Hg],other results
"O=C(NCCCn1cncn1)Nc1cccc(Cl)c1 [N--(3-chlorophenyl)-N--[3-(1H--1,2,4-triazol-1-yl)propy]-urea]",99,149,–
"O=C(NCCCn1cncn1)Nc1ccc(Cl)cc1 [N-(4-Chlorophenyl)-N'-[3-(1H-1,2,4 triazol-1-yl)propyl]urea]",93,145,–
"CCCCC[C@H](O)/C=C/[C@@H]1[C@H]2C/C(=C/CCCC(=O)O)O[C@H]2C[C@H]1O [PGI2, Prostacyclin]",–,–,effect on ischemic myocardium [3]: beneficial effects
O=C(NCCCCn1ccnc1)Nc1ccccc1Br [N--(2-bromophenyl)-N'--[4-(1H--imidazol-1-yl)-butyl]-urea],–,98,–
"O=C(NCCCn1cncn1)Nc1cccc(C(F)(F)F)c1 [N-[3-(1H-1,2,4-triazol-1-yl)propyl]-N'-[3-(trifluoromethyl)phenyl]urea]",99,143,–
"O=C(NCCCn1cncn1)Nc1ccc(Cl)c(Cl)c1 [N--(3,4-dichlorophenyl)-N'--[3-(1H--1,2,4-triazol-1-yl)-propyl]urea]",–,155,–
Cc1cn(CCCCNC(=O)Nc2ccc(Cl)cc2)cn1 [N--(4-chlorophenyl)-N'--[4-(4-methyl-1H--imidazol-1-yl)-butyl]urea],100,–,–
"O=C(NCCCn1cncn1)Nc1ccccc1Br [N--(2-bromophenyl)-N'--[3-(1H--1,2,4-triazol-1-yl)propyl]-urea]",85,130,–
"O=C(NCCCn1cncn1)Nc1ccc(Br)cc1 [N--(4-bromophenyl)-N'--[3-(1H--1,2,4-triazol-1-yl)propyl]urea]",86,–,–
O=C(NCCCCn1ccnc1)Nc1ccccc1Cl [N-(2-Chlorophenyl)-N'-[4-(-1H-imidazol-1-yl)butyl]urea],–,97,–
"O=C(NCCCn1cncn1)Nc1ccccc1Cl [N--(2-chlorophenyl)-N'--[3-(1H--1,2,4-triazol-1-yl)propyl]-urea]",86,142,–
"CCCCC[C@H](O)/C=C/[C@H]1O[C@H]2C[C@H](O2)[C@@H]1C/C=C\CCCC(=O)O [TXA2, thromboxane A2]",–,–,effect of injection into coronary arteries [4]: causes myocardial ischemia and subendocardial necrosis; effect of injection into coronary arteries [5]: causes myocardial ischemia and subendocardial necrosis
"O=C(NCCCn1cncn1)Nc1ccccc1 [N--phenyl-N'--[3-(1H--1,2,4-triazol-1-yl)propyl]urea]",–,151,–
"COc1ccc(NC(=O)NCCCn2cncn2)cc1 [N--(4-methoxyphenyl)-N'--[3-(1H--1,2,4-triazol-1-yl)-propyl]urea]",71,–,–

# Continued, in another order:
inhibition at 100 µM [2] [%],SMILES,Average MABP [1] [mm Hg],other results
100,O=C(NCCCn1ccnc1)Nc1ccc(F)cc1 [N--(4-fluorophenyl)-N'--[3-(1H--imidazol-l-yl)propyl]-urea],134,–
92,O=C(NCCCn1ccnc1)Nc1ccc(Cl)cc1 [N-(4-Chlorophenyl)-N'-[3-(1H-imidazol-1-yl)propyl]urea],122,–
95,"O=C(NCCCn1ccnc1)Nc1ccc(Cl)c(Cl)c1 [N--(3,4-dichlorophenyl)-N'--[3-(1H--imidazole-1-yl)propyl]-urea]",146,–
92,Cc1cn(CCCNC(=O)Nc2ccc(Cl)cc2)cn1 [N--(4-chlorophenyl)-N'--[3-(4-methyl-1H--imidazol-1-yl)-propyl]urea],138,–
97,O=C(NCCCn1ccnc1)Nc1ccccc1 [N--[3-(1H--imidazol-1-yl)propyl]-N'--phenylurea],141,–
99,O=C(NCCCn1ccnc1)Nc1ccccc1F [N--(2-fluorophenyl)-N'--[3-(1H--imidazole-1-yl)propyl]-urea],135,–
94,COc1ccc(NC(=O)NCCCn2ccnc2)cc1 [N--[3-(1H--imidazol-1-yl)propyl]-N'--(4-methoxyphenyl)urea],–,–
95,O=C(NCCCCn1ccnc1)Nc1ccc(Cl)cc1 [N--(4-chlorophenyl)-N'--[4-(1H--imidazol-1-yl)butyl]urea],131,–
95,O=C(NCCCn1ccnc1)Nc1ccc(Br)cc1 [N--(4-bromophenyl)-N'--[3-(1H--imidazole-1-yl)propyl]-urea],145,–
100,O=C(NCCCn1ccnc1)Nc1cccc(Cl)c1 [N--(3-chlorophenyl)-N'--[3-(1H--imidazole-1-yl)propyl]-urea],124,–
97,"O=C(NCCCn1cncn1)Nc1ccc(F)cc1 [N--(4-fluorophenyl)-N'--[3-(1H--1,2,4-triazol-1-yl)propyl]urea]",–,–
94,O=C(NCCCn1ccnc1)Nc1ccccc1Cl [N--(2-chlorophenyl)-N'--[3-(1H--imidazole-1-yl)propyl]-urea],123,–
70,"O=C(NCCCn1cncn1)Nc1ccccc1F [N--(2-fluorophenyl)-N'--[3-(1H--1,2,4-triazol-1-yl)propyl]-urea]",149,–
95,O=C(NCCCn1ccnc1)Nc1ccccc1Br [N--(2-bromophenyl)-N'--[3-(1H--imidazole-1-yl)propyl]-urea],113,–
86,O=C(NCCCn1ccnc1-c1ccccc1)Nc1ccc(Cl)cc1 [N--(4-chlorophenyl)-N'--[3-(2-phenyl-1H--imidazol-1-yl)-propyl]urea],–,–
92,O=C(NCCCCCn1ccnc1)Nc1ccc(Cl)cc1,153,–
100,O=C(NCCCn1ccnc1)Nc1cccc(C(F)(F)F)c1 [N-[3-(1H-Imidazol-1-yl)propyl]-N'-[3-(trifluoromethyl)phenyl]urea],–,–
98,Cc1ccc(NC(=O)NCCCn2ccnc2)cc1 [N--[3-(1H--imidazole-1-yl)-propyl]-N'--(4-methylphenyl)-urea],–,–
